Measured values taken from the METLIN SMRT retention time set (Domingo-Almenara et al. 2019).

Test: gradient 5% acetonitrile 3 min, to 50% in 2 min, to 85% in 15 min, held 3 min, 100 µL/min
Details: column: Zorbax Extend-C18 2.1 x 50 mm; eluents: water / acetonitrile, 0.1% formic acid
Method in brief: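 Over 3 months, pure standards in mixtures of ~100 molecules were run by HPLC coupled to a quadrupole time-of-flight mass spectrometer in positive and negative ionization mode. The column was a Zorbax Extend-C18 (2.1 × 50 mm, 1.8 μm) at 100 μL/min, eluted with water and acetonitrile each holding 0.1% formic acid, with 40 μL dead and 900 μL dwell volumes. Retention time was determined from adduct peaks chosen by software and checked manually.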

| Compound | RP-LC retention time [s] |
| --- | --- |
| Cc1ccc2ncn(C3CCN(S(=O)(=O)c4ccc(CC(C)C)cc4)CC3)c(=O)c2c1 | 1150 |
| Cc1cnc(-c2ccccc2)n1CCNS(=O)(=O)c1ccccc1 | 629 |
| CCC(C)C(NC(=O)c1ccc(Cl)cc1)C(=O)Nc1nc2ccccc2[nH]1 (centres undefined) | 793 |
| CCCN(CC(=O)N(Cc1ccco1)CC1CCCO1)C(=O)c1ccccc1OC (centres undefined) | 870 |
| COc1ccc(-c2noc(Cc3nnc(-c4ccc(F)cc4)o3)n2)cc1 | 972 |
| Cc1ccc(C(=O)NCCc2ncc(C)n2C2CCC2)s1 | 564 |
| COCCN1C(=O)[C@H]2CN(Cc3cc(Br)ccc3OC)C[C@H]2C1=O | 633 |
| CC(C)c1nc2ccc(C(=O)NCCCN3CCN(C4CCCCC4)CC3)cc2o1 | 588 |
| O=C(Nc1nnc2n1CCS2)c1c(F)cccc1F | 584 |
| CC1CCN(S(=O)(=O)c2ccc(-c3nnc(C(=O)NCCN4CCOCC4)o3)cc2)CC1 | 674 |
| O=C(NC1CCCC1)NC1CCN(c2ccccc2)C1=O (centres undefined) | 726 |
| O=C(Nc1nccs1)C1CCN(C(=O)C2CC(=O)N(c3ccc(F)cc3)C2)CC1 (centres undefined) | 672 |
| O=C(O)c1ccccc1C(=O)Nc1cccc(Cl)c1 | 701 |
| COc1ccc2c(c1)C1(CCN(C(=O)NC3CCCCC3)C1)C(=O)N2C (centres undefined) | 778 |
| COc1ccc(NC(=O)NCC23CCCC=C2NC(=O)CC3)cc1 (centres undefined) | 593 |
| CCOC(=O)c1cc(S(=O)(=O)N2CCCC2C(=O)NC(C)(C)CC)cn1C (centres undefined) | 931 |
| O=C(NC1CC1)c1ccc(OCC2CCCN2C(=O)c2ccccc2F)cc1 (centres undefined) | 751 |
| O=C1[C@H]2CCCC[C@H]2C(=O)N1CCCCN1CCN(c2nsc3ccccc23)CC1 | 775 |
| COc1ccc(Cl)cc1-c1nc(-c2ccc3oc(C)nc3c2)no1 | 1060 |
| CCn1c(=O)c(N2CCC(NC(=O)NCc3ccc(F)cc3)CC2)nc2cccnc21 | 850 |
| O=C(Nc1nccs1)C1CCCN(S(=O)(=O)c2c[nH]c(C(=O)N3CCCC3)c2)C1 (centres undefined) | 688 |
| COC(=O)C(C)n1cc(-c2nc(-c3ccc(Cl)cc3)no2)ccc1=O (centres undefined) | 950 |
| O=C(CCS(=O)(=O)c1ccccc1)N1CCCc2ccccc21 | 779 |

| Compound | RP-LC retention time [s] |
| --- | --- |
| CCc1ccc(NC(=O)Cn2c(=O)c(CCC(=O)NCC(C)C)nc3ccccc32)cc1 | 878 |
| O=Cc1ccc(O)c2ncccc12 | 658 |
| COc1ccc(C2(C(=O)N3CCO[C@@H](COc4ccccn4)[C@@H]3c3ccccc3)CC2)cc1 | 1070 |
| COc1ccc(C(=O)NCc2c(-c3ccccc3)nc3sc(C)nn23)cn1 | 774 |
| COc1ccc(N2CC(c3nc(-c4ccc(C(F)(F)F)cc4)no3)CC2=O)cc1OC (centres undefined) | 963 |
| CCN1C(=O)C(C)(C(=O)NCc2cccc(Cl)c2)Oc2cccnc21 (centres undefined) | 903 |
| Cc1noc(C)c1-c1ccc(S(=O)(=O)Nc2ccc(Br)cc2F)cc1 | 1010 |
| CCc1nn2c(CNC(=O)c3ccc(F)c(Cl)c3)c(C)nc2s1 | 710 |
| Cc1cc(N2CCN(S(=O)(=O)c3ccc(F)cc3)CC2)nc(NC2CCCCC2)n1 | 797 |
| CN(CC1CCOC1)C(=O)Nc1ccc(F)cc1 (centres undefined) | 671 |
| O=C(Cn1cc(S(=O)(=O)N2CCCCCC2)ccc1=O)N1CCCc2ccccc21 | 900 |
| CCOC(=O)c1c(C)oc2nc(C)nc(NCCc3ccc(OC)c(OC)c3)c12 | 1050 |
| Cn1ncc2c(Nc3cccc(Cl)c3)nc(N3CCCC3)nc21 | 978 |
| Cc1ccc(NC(=O)Cn2cc(-c3ccccc3)c(N(C)C)n2)c(F)c1 | 997 |
| CN(C)[C@@H]1CN(C(=O)C2CCCC2)CC[C@@H]1CO | 569 |
| CC1=C(c2ccc(C)c(C)c2)S(=O)(=O)N=C1N1CCCN(C(=O)c2ccco2)CC1 | 836 |
| Cc1onc(-c2ccccn2)c1C(=O)NCCCN1CCN(C2CCCCC2)CC1 | 582 |
| Cc1ccc(NS(=O)(=O)c2n[nH]c(C)c2C(=O)NCc2ccc(F)cc2F)cc1 | 821 |
| Cc1c(Cl)cccc1NC(=O)N1C[C@@H](F)C[C@H]1C(=O)N1CCCCC1 | 718 |
| N#Cc1cccc(C(=O)N2CCN(c3cc(-c4ccccc4)[nH]n3)CC2)c1 | 749 |
| CCCNC(=O)c1nnc(-c2ccc(S(=O)(=O)N3CCOCC3)cc2)o1 | 724 |
| CCOC(=O)C1CCN(C(=O)c2sc3ncn(CC(=O)N4CCCCC4C)c(=O)c3c2C)CC1 (centres undefined) | 776 |
| COc1ccc(N(Cc2nc3nc(C)c(Cl)c(C)n3n2)C(=O)c2ccco2)cc1 | 824 |

| Compound | RP-LC retention time [s] |
| --- | --- |
| CCOCCCNC(=O)C1c2cc(OC)c(OC)cc2C(=O)N2CCc3ccccc3C12 (centres undefined) | 718 |
| Cc1ccc(CNC(=O)Cn2nc(C)c3sc(-c4ccccc4)nc3c2=O)cc1C | 968 |
| Cc1cccc2c(=O)n(C3CCN(S(=O)(=O)c4ccc(F)cc4F)CC3)cnc12 | 904 |
| Cn1c(=O)n(C)c2cc(S(=O)(=O)c3ccc(F)cc3)c(NC(=O)Cc3cccs3)cc21 | 790 |
| COCCn1cc2c3c(cccc31)CN(C(=O)Nc1ccc(C)cc1C)CC2 | 970 |
| CCn1c(=O)c(N2CCN(C(=O)NCc3ccc(C)cc3)CC2)nc2ccccc21 | 927 |
| COCc1noc([C@@H]2CC(F)(F)CN2C(=O)c2cc(C)oc2C)n1 | 835 |
| O=C(NCC(O)(c1ccccc1)C(F)(F)F)c1ccc2nsnc2c1 (centres undefined) | 853 |
| CCN(CC)C(=O)C1CCCN(C(=O)c2nn(C)c3c2CN(C(=O)c2ccco2)CC3)C1 (centres undefined) | 658 |
| COc1ccccc1-c1nc(Cn2nnc(-c3nc(-c4ccccc4)no3)c2C)c(C)o1 | 1140 |
| Cc1ccc(N2CC(c3nc(-c4ccc5oc(C)nc5c4)no3)CC2=O)cc1 (centres undefined) | 903 |
| CCOC(=O)c1cnc2nc(C)ccc2c1Nc1cc(OC)c(OC)c(OC)c1 | 671 |
| COc1ccc(OC)c(CNC(=O)Cn2cc(-c3nnco3)c3ccccc32)c1 | 765 |
| CSc1cccc(NC(=O)Cn2cnc3c(sc4nc(-c5ccccc5)ccc43)c2=O)c1 | 1040 |
| CC(C)c1ccc(-c2nc(-c3cccc(-c4ccnn4C)c3)no2)cc1 | 1390 |
| CC(C)CNC(=O)CCc1nc2ccccc2n(CC(=O)NCc2ccc(F)cc2)c1=O | 783 |
| CC(C)(C)c1ccc(C(=O)Nc2nnc(C3CC(=O)N(c4ccc(F)cc4)C3)o2)cc1 (centres undefined) | 872 |
| COc1ccccc1OCC(=O)NCc1ccsc1 | 747 |
| O=S(=O)(c1ccc2c(c1)CCCC2)N1CCCC1c1nc(-c2cccc(F)c2)no1 (centres undefined) | 1330 |
| CC(=O)Nc1cc(C(=O)N2CCN(c3cc(C)ccc3C)CC2)c2ccc(C)nc2c1 | 1250 |
| CCOC(=O)c1nc(N(C)c2ccccc2F)c2ccccc2n1 | 931 |
| Cc1nn(CCCC(=O)Nc2cccc(F)c2)c(=O)c2nn(-c3ccccc3)c(C)c12 | 709 |
| CN(C)c1cccc(-c2nc(-c3ccc4nnn(C)c4c3)no2)c1 | 1070 |

| Compound | RP-LC retention time [s] |
| --- | --- |
| Cc1cc(C)cc(N2CCC(NC(=O)c3ccc(C)s3)C2=O)c1 (centres undefined) | 904 |
| O=C(NCc1ccco1)c1cc2c(=O)n(Cc3ccccc3)ccc2s1 | 822 |
| CCOCC(=O)Nc1ccc2c(c1)Sc1ncccc1C(=O)N2CC | 697 |
| COc1ccc(CNC(=O)c2cn3ccc(C)cc3n2)cc1 | 545 |
| CCc1ccc(-c2csc(Nc3ccc(Br)cn3)n2)cc1 | 1330 |
| O=c1ccc(-c2nc(-c3cccc(Br)c3)no2)cn1Cc1ccncc1 | 746 |
| COc1ccc(Cl)cc1NC(=O)Nc1ccc2c(c1)N(C)C(=O)C(C)(C)CO2 | 981 |
| Cc1cnc(C(=O)N2CCCC2c2nc(CCOCC3CCCC3)no2)cn1 (centres undefined) | 903 |
| O=C(Cc1cccc(F)c1)Nc1nnc(C2CC(=O)N(c3ccc(Cl)cc3)C2)o1 (centres undefined) | 800 |
| CC1CCCCN1CCCNC(=O)CCCn1c(=O)c2cccn2c2ccccc21 (centres undefined) | 627 |
| Cn1nc(C(=O)N2CCCC(C(=O)NC3CC3)C2)c2c1CCN(C(=O)c1c(F)cccc1F)C2 (centres undefined) | 660 |
| O=C(NC1CCN(c2ccccc2)C1=O)c1ccccc1C(F)(F)F (centres undefined) | 826 |
| CC(C)CN(C[C@@H](O)[C@H](Cc1ccccc1)NC(=O)O[C@H]1CO[C@H]2OCC[C@H]21)S(=O)(=O)c1ccc(N)cc1 | 830 |
| CC(C)(C)c1ccc(C(=O)N2CCN=C2N2CCCC2)cc1 | 738 |
| O=S(=O)(c1cccc(-c2nnc(-c3ccc(F)cc3)o2)c1)N1CCCCC1 | 1080 |
| CCCc1nnc(NC(=O)CSc2ncc(-c3ccccc3)[nH]2)s1 | 632 |
| CCC(=O)N1CCc2c(sc3ncnc(NCc4cccnc4)c23)C1 | 573 |
| O=C(NCCN1CCN(c2ccc(F)cc2)CC1)C(=O)NCc1ccc(F)cc1 | 588 |
| Cc1ccc(Nc2nc(NCCO)c3cnn(C)c3n2)cc1C | 610 |
| O=C(NCC(O)C1CCCCC1)c1cccc(C(F)(F)F)c1 (centres undefined) | 840 |
